Measured values as given in patent publication US10016425B2, “Anti-ulcerative colitis compound” (KING SAUD UNIVERSITY, priority 2016, dated 2018).

Tests used:
Swiss albino mice = conditions: mouse, in vivo
Procedure: (§1) The anti-ulcerative colitis compounds were tested on Swiss albino mice of both genders (26-30 g), as well as male Wistar rats (180-200 g). The animals were housed in standard polypropylene cages with wire mesh tops and maintained under standard conditions (temperature of 23±1.0° C., humidity of 55±10%, 12 h light/12 h dark cycle). They were fed with a standard pellet diet with water ad libitum and were allowed to adapt to the laboratory environment for one week before experimentation.
In order to determine the oral median lethal dose (LD50) of the anti-ulcerative colitis compound, the Swiss albino mice (in groups of six), received one of 50, 100, 500, or 1000 mg/kg doses of the target compound. Control animals received the pharmaceutical vehicle only and were kept under the same conditions. Signs of acute toxicity and the number of deaths per dose within 24 hours were recorded.

[1] = test system: Liver and Kidney Functions; experiment: Effect on liver and kidney functions in rats after 15 days oral dosing; format: in vivo, male Wistar rats; set-up: ALT / AST: dose or concentration left out as unconfirmed; conditions: oral 15 days; for Blood Urea / ALT / AST / Creatinine: mean ± SD, n = 10; for hepatotoxic manifestation / nephrotoxic manifestations: no significant difference to control at 0.05 level; for ALT / AST / Creatinine: serum
Procedure: as §1
The male Wister rats were divided into two equal groups each having ten rats. […] After the examination period, 6 hours after the last dose blood samples were collected from the orbital plexus of rats, samples were left to clot at room temperature for 30 minutes and then centrifuged at 1000 rpm for 20 minutes. The collected sera were used for determination of the activity of both […] (AST) and alanine aminotransferase (ALT) as liver markers. Additionally, levels of blood urea and serum creatinine were also estimated as kidney markers.

[2] = test system: Acetic Acid-induced Colitis; experiment: Acetic acid-induced colitis in rats (prophylactic effect, macroscopic scoring); format: in vivo, male Wistar rats; conditions: for percent protection of control colitis: 50 mg/kg orally; for anti-ulcerative colitis activity (in words): administrated orally to rats, 50 mg/kg
Procedure: as §1
In order to examine the effect of the treatment compounds on ulcerative colitis, five groups of six rats were used. Two groups received compounds 5 and 6 at a dose of 50 mg/kg of body weight. Three other groups of animals were used, with two receiving water orally and the third receiving dexamesathone at a dose of 0.1 mg/kg orally, serving as control, control colitis and standard groups, respectively. All medications were administrated for five successive days. Two hour after the last dose, ulcerative colitis was induced by slowly infusion of 2 mL (4%, v/v) of acetic acid in saline into the colon through a catheter. Two days after the induction of colitis, the animals were sacrificed and colonic segments (8 cm in length and 3 cm proximal to the anus) were excised, opened and were used for macroscopic scoring.
To assess colonic lesions, the colon specimens were weighted and the wet weight/length ratio was calculated for all of the animals. The specimens were examined under a dissecting microscope and mucosal lesions were quantified by the scoring system (0-5): 0=no damage, 1=local edema and inflammation without ulcers; 2=one ulcer without inflammation; 3=one to two ulcers with inflammation and lesion diameter <1 cm; 4=more than two ulcers with lesion diameter 1-2 cm; 5=severe ulceration with lesion diameter >2 cm.
Ulcer area was measured using a plane glass square. Each cell on the glass square was 1 mm^2 in area and the number of cells were counted and the ulcer area was determined for each colon. Ulcer index was measured by summing the lesion score and the ulcer area for each colon specimen. All values were expressed as mean±S.D. Statistical analysis was performed using SPSS 10. Statistical significance of differences between two means was assessed by unpaired student's T-test. Differences at p<0.05, 0.01, and 0.001 were considered statistically significant.

`COc1cc(/C=N/n2c(-c3ccc(C)cc3)nc3ccccc3c2=O)cc(OC)c1OC` [Compound 6, 2-p-tolyl-3-[3,4,5-trimethoxy-benzylidene-amino]-3H-quinazolin-4-one] was tested. Which “behavioral changes and/or mortality in mice” value (Swiss albino mice) did it give?
Its value is “did not produce any behavioral changes and/or mortality”.

What about the “Blood Urea” value [1] of the same compound?
Its value is 65.50 ± 1.9 mg/dL.

What about the hepatotoxic manifestation [1] of the same compound?
The hepatotoxic manifestation was “do not result in hepatotoxic manifestation”.

And the nephrotoxic manifestations [1]?
The nephrotoxic manifestations was “no apparent nephrotoxic manifestations”.

And the ALT [1]?
Its ALT is 38.67 ± 0.22 U/l.

And the AST [1]?
Its AST is 63.23 ± 0.39 U/l.

And the Creatinine [1]?
The Creatinine was 0.85 ± 0.02 mg/dL.

What about the “percent protection of control colitis” value [2] of the same compound?
Its value is 61.8%.

And the “anti-ulcerative colitis activity (in words)” value [2]?
Its value is “potent anti-ulcerative colitis activity”.

Which results are given for `COc1cc(/C=N/n2c(-c3ccc(C)cc3)nc3ccccc3c2=O)ccc1O` [Compound 5, 3-[(4-hydroxy-3-methoxy-benzylidene)-amino]-2-p-tolyl-3H-quinazolin-4-one]?
behavioral changes and/or mortality in mice (Swiss albino mice): did not produce any behavioral changes and/or mortality; Blood Urea [1]: 65.50 ± 1.9 mg/dL; hepatotoxic manifestation [1]: do not result in hepatotoxic manifestation; nephrotoxic manifestations [1]: no apparent nephrotoxic manifestations; ALT [1]: 38.67 ± 0.22 U/l; AST [1]: 63.23 ± 0.39 U/l; Creatinine [1]: 0.85 ± 0.02 mg/dL; percent protection of control colitis [2]: 51.2%; anti-ulcerative colitis activity (in words) [2]: potent anti-ulcerative colitis activity

Which percent protection ([2]; 0.1 mg/kg orally) does the source give for `C[C@@H]1C[C@H]2[C@@H]3CCC4=CC(=O)C=C[C@]4(C)[C@@]3(F)[C@@H](O)C[C@]2(C)[C@@]1(O)C(=O)CO` [Dexamethasone, reference compound] here?
Its percent protection is 72.2%.
